The subject of data set [1] is HBeAg (surrogate marker for cccDNA) in HepDES19 cells. As to the kind of experiment: Engineered HepDES19 primary screen assay (HBeAg ELISA). The format is cell-based, HBV. The text has this: The assay was employed to screen for novel cccDNA inhibitors. HepDES19 is a cccDNA-producing cell line. In this cell line, HBeAg in the cell culture supernatant as surrogate marker, as HBeAg production depends on cccDNA level and activity. HepDES19 is an engineered cell line which contains a 1.1 unit length HBV genome, and pgRNA transcription from the transgene is controlled by Tetracycline (Tet). In the absence of Tet, pgRNA transcription will be induced, but HBV e antigen (HBeAg) could not be produced from this pgRNA due to very short leader sequence before the HBeAg start codon and the start codon is disrupted. Only after cccDNA is formed, the missing leader sequence and start codon mutation would be restored from the 3′-terminal redundancy of pgRNA, and then HBeAg could be synthesized. Therefore, HBeAg could be used as a surrogate marker for cccDNA (Zhou, T. et al., Antiviral Res. (2006), 72(2), 116-124; Guo, H. et al., J. Virol. (2007), 81(22), 12472-12484).
HepDES19 cells were seeded at 2×10^6 cells per T150 flask and cultured with the culture medium (Dulbecco's Modified Eagle Medium: Nutrient Mixture F-12 [DMEM-F12, Gibco Cat. 11320-82], 10% Fetal Bovine Serum [FBS, Clontech Cat. 631101], 0.1 mM Non-Essential Amino Acids Solution [NEAA, Gibco Cat. 11140-050], 50 μg/mL Penicillin-Streptomycin [PS, Invitrogen Cat. 15140-163], 500 μg/mL Geneticin [G418, Invitrogen Cat. 10131-027]) containing 3 μg/mL Tet (Sigma, Cat. 87128) for 5 days. Cells were then seeded at 4×10^6 cells per T150 in the same culture medium as described above in the absence of Tet for 8 days. Cells were then harvested and frozen at density of 2×10^6 cells per mL. For compound testing, the frozen cells were thawed and seeded into 96-well plates at a density of 6×10^4 cells per well. At 24 hours after seeding, half log serial dilutions of compounds made with Dimethyl sulfoxide (DMSO, Sigma, Cat. D2650) were further diluted with the same culture medium as described above before they were added to the cells to reach desired final compound concentrations and 1% DMSO concentration. Plates were then incubated at 37° C. for another 5 days before measurement of HBeAg level and cell viability. […] HBeAg level were measured with enzyme-linked immunosorbent assay (ELISA) kit (Shanghai Kehua Diagnostic Medical Products Co., Ltd). Cell viability was assessed using Cell Counting Kit-8 (DonJindo, Cat. CK04-20). IC50 values were derived from the dose-response curve using 4 parameter logistic curve fit method.
The compounds of the present invention were tested for their capacity to inhibit extracellular HBeAg level as described herein.

The nature of data set [2]: Human microsome stability assay. The format is in vitro ADME. The note with it: human liver microsomes, 1 μM test compound, 0.5 mg/mL microsomal protein, 37° C., pH 7.4, 0-30 minutes. As for the experimental part: The human microsomal stability assay is used for early assessment of metabolic stability of a test compound in human liver microsomes.
Human liver microsomes (Cat. NO.: 452117, Corning, USA; Cat. NO.: H2610, Xenotech, USA) were preincubated with test compound for 10 minutes at 37° C. in 100 mM potassium phosphate buffer, pH 7.4. The reactions were initiated by adding NADPH regenerating system. The final incubation mixtures contained 1 μM test compound, 0.5 mg/mL liver microsomal protein, 1 mM MgCl2, 1 mM NADP, 1 unit/mL isocitric dehydrogenase and 6 mM isocitric acid in 100 mM potassium phosphate buffer, pH 7.4. After incubation times of 0, 3, 6, 9, 15 and 30 minutes at 37° C., 300 μL of cold ACN (including internal standard) was added to 100 μL incubation mixture to terminate the reaction. Following precipitation and centrifugation, the amount of compound remaining in the samples was determined by LC-MS/MS. Controls of no NADPH regenerating system at zero and 30 minutes were also prepared and analyzed.

Setting [3] is: Hepatitis B virus, HepDES19, 120 h, read-out: IC50 (HBeAg level, HepDES19 primary screen assay), HepDES19 cells, 5 days compound incubation, HBeAg ELISA.

Experimental findings from patent US11708344B2, “Flavone derivatives for the treatment and prophylaxis of hepatitis B virus disease” (Hoffmann-La Roche Inc., priority 2018, dated 2023) are described below.

Molecules are shown by their SMILES. Read-outs that look alike come from different tables or passages of the source.

On to `O=C(O)[C@@H]1CC[C@@H](Oc2cc(Br)ccc2-c2cc(=O)c3cccc(Cl)c3o2)C1` (relative stereo) [Example B028-B, Trans-3-[5-bromo-2-(8-chloro-4-oxo-chromen-2-yl)phenoxy]cyclopentanecarboxylic acid], for which, in data set [1] (setting [3]), the IC50 was 213 nM. Besides, the “Clearance of Human microsome” value in data set [2] is listed as 9.98 mL/min/kg.

For `O=C(O)C1CCCN1C(=O)COc1cc(C(F)(F)F)ccc1-c1cc(=O)c2cccc(Cl)c2o1` (stereo in doubt) [Example A082, (2S)-1-[2-[2-(8-chloro-4-oxo-chromen-2-yl)-5-(trifluoromethyl)phenoxy]acetyl]pyrrolidine-2-carboxylic acid], in data set [1] (read-out: IC50 (HBeAg level, HepDES19 primary screen assay), HepDES19 cells, 5 days compound incubation, HBeAg ELISA), the half-maximal inhibitory concentration (IC50) turned out to be 1190 nM. Also, in data set [2], the “Clearance of Human microsome” value amounted to 6.15 mL/min/kg.

For `O=C(O)C1CC(OCCOc2ccccc2-c2cc(=O)c3cccc(Br)c3o2)C1` (stereo in doubt) [Example C046-A, Cis-3-[2-[2-(8-bromo-4-oxo-chromen-2-yl)phenoxy]ethoxy]cyclobutanecarboxylic acid], the concentration for half-maximal inhibition (IC50) in data set [1] (setting [3]) is 192 nM. In addition, the “Clearance of Human microsome” value in data set [2] is given as 6.15 mL/min/kg.

Take `O=C(O)CCOc1cc(C(F)(F)F)ccc1-c1cc(=O)c2cc(F)cc(Cl)c2o1` [Example A003, 3-[2-(8-chloro-6-fluoro-4-oxo-chromen-2-yl)-5-(trifluoromethyl)phenoxy]propanoic acid]: the half-maximal inhibitory concentration (IC50) in data set [1] (setting [3]) was 362 nM. In addition, the “Clearance of Human microsome” value in data set [2] was 6.15 mL/min/kg.

As for `COc1cc(-c2cc(=O)c3cccc(Cl)c3o2)c(OCCC(=O)O)cc1C` [Example A015, 3-[2-(8-chloro-4-oxo-chromen-2-yl)-4-methoxy-5-methyl-phenoxy]propanoic acid], the IC50 in data set [1] (setting [3]) was 11100 nM. The “Clearance of Human microsome” value in data set [2] is listed as 6.15 mL/min/kg.

`Cc1cc(Br)c(OCCC(=O)O)c(-c2cc(=O)c3cccc(Cl)c3o2)c1` [Example A018, 3-[2-bromo-6-(8-chloro-4-oxo-chromen-2-yl)-4-methyl-phenoxy]propanoic acid]: the half-maximal inhibitory concentration (IC50) in data set [1] (setting [3]) was determined as 3320 nM. In data set [2], the “Clearance of Human microsome” value came to 6.15 mL/min/kg.

As to `Cc1cc(OCCC(=O)O)c(-c2cc(=O)c3cccc(Cl)c3o2)cc1OC(F)(F)F` [Example A019, 3-[2-(8-chloro-4-oxo-chromen-2-yl)-5-methyl-4-(trifluoromethoxy)phenoxy]propanoic acid], the 50% inhibitory concentration (IC50) in data set [1] (setting [3]) was 2960 nM. Further, in data set [2], the “Clearance of Human microsome” value is 6.15 mL/min/kg.

As to `Cc1cc(F)c(-c2cc(=O)c3cccc(Cl)c3o2)c(OCCC(=O)O)c1` [Example A021, 3-[2-(8-chloro-4-oxo-chromen-2-yl)-3-fluoro-5-methyl-phenoxy]propanoic acid], the IC50 in data set [1] (setting [3]) was 4040 nM. In data set [2], the “Clearance of Human microsome” value is 6.15 mL/min/kg.

Regarding `O=C(O)CCOc1cc(C(F)(F)F)ccc1-c1cc(=O)c2ccc(F)c(Cl)c2o1` [Example A031, 3-[2-(8-chloro-7-fluoro-4-oxo-chromen-2-yl)-5-(trifluoromethyl)phenoxy]propanoic acid], the IC50 in data set [1] (setting [3]) came to 377 nM. The “Clearance of Human microsome” value in data set [2] is recorded as 6.15 mL/min/kg.

For `COc1ccc2c(=O)cc(-c3ccc(C(F)(F)F)cc3OCCC(=O)O)oc2c1Cl` [Example A032, 3-[2-(8-chloro-7-methoxy-4-oxo-chromen-2-yl)-5-(trifluoromethyl)phenoxy]propanoic acid], in data set [1] (setting [3]), the half-inhibitory concentration (IC50) was 13000 nM. Also, the “Clearance of Human microsome” value in data set [2] is on record as 6.15 mL/min/kg.

Consider `COc1cc(Cl)c2oc(-c3ccc(C(F)(F)F)cc3OCCC(=O)O)cc(=O)c2c1` [Example A033, 3-[2-(8-chloro-6-methoxy-4-oxo-chromen-2-yl)-5-(trifluoromethyl)phenoxy]propanoic acid], for which, in data set [1] (setting [3]), the half-inhibitory concentration (IC50) is 479 nM. Besides, in data set [2], the “Clearance of Human microsome” value came to 6.15 mL/min/kg.

In the case of `Cc1c(-c2ccc(C(F)(F)F)cc2OCCC(=O)O)oc2c(Cl)cccc2c1=O` [Example A034, 3-[2-(8-chloro-3-methyl-4-oxo-chromen-2-yl)-5-(trifluoromethyl)phenoxy]propanoic acid], in data set [1] (setting [3]), the concentration for half-maximal inhibition (IC50) worked out at 13400 nM. Moreover, the “Clearance of Human microsome” value in data set [2] amounted to 6.15 mL/min/kg.

As for `COc1cc(-c2cc(=O)c3cccc(Cl)c3o2)c(OCCC(=O)O)cc1OCC(F)(F)F` [Example A041, 3-[2-(8-chloro-4-oxo-chromen-2-yl)-4-methoxy-5-(2,2,2-trifluoroethoxy)phenoxy]propanoic acid], the half-maximal inhibitory concentration (IC50) in data set [1] (setting [3]) was determined as 6060 nM. Besides, the “Clearance of Human microsome” value in data set [2] came to 6.15 mL/min/kg.

For `Cc1cc(-c2cc(=O)c3cccc(Cl)c3o2)c(OCC(=O)O)cc1Br` [Example A073, 2-[5-bromo-2-(8-chloro-4-oxo-chromen-2-yl)-4-methyl-phenoxy]acetic acid], the “Clearance of Human microsome” value in data set [2] turned out to be 6.15 mL/min/kg.

As for `O=C(O)C1CCC(OCCOc2cc(Br)ccc2-c2cc(=O)c3cccc(Cl)c3o2)C1` (stereo not drawn) [Example C106, 3-[2-[5-bromo-2-(8-chloro-4-oxo-chromen-2-yl)phenoxy]ethoxy]cyclopentanecarboxylic acid], the IC50 in data set [1] (setting [3]) amounted to 2100 nM.

With `O=C(O)c1ccc(OCCOc2cc(Br)ccc2-c2cc(=O)c3cccc(Cl)c3o2)cc1` [Example C107, 4-[2-[5-bromo-2-(8-chloro-4-oxo-chromen-2-yl)phenoxy]ethoxy]benzoic acid], the half-maximal inhibitory concentration (IC50) in data set [1] (setting [3]) stood at 991 nM.

`O=C(O)c1cccc(OCCOc2cc(Br)ccc2-c2cc(=O)c3cccc(Cl)c3o2)c1` [Example C108, 3-[2-[5-bromo-2-(8-chloro-4-oxo-chromen-2-yl)phenoxy]ethoxy]benzoic acid]: in data set [1] (setting [3]), the IC50 is 1250 nM.

`CC(C)(OCCCOc1cc(C(F)(F)F)ccc1-c1cc(=O)c2cccc(Cl)c2o1)C(=O)O` [Example C109, 2-[3-[2-(8-chloro-4-oxo-chromen-2-yl)-5-(trifluoromethyl)phenoxy]propoxy]-2-methyl-propanoic acid]: the half-inhibitory concentration (IC50) in data set [1] (setting [3]) was found to be 995 nM.

With `CS(=O)(=O)NC(=O)[C@H]1C[C@H](OCCOc2cc(Br)ccc2-c2cc(=O)c3cccc(Cl)c3o2)C1` [Example C123, Trans-3-[2-[5-bromo-2-(8-chloro-4-oxo-chromen-2-yl)phenoxy]ethoxy]-N-methylsulfonyl-cyclobutanecarboxamide], the IC50 in data set [1] (setting [3]) came to 6530 nM.

For the compound `CS(=O)(=O)NC(=O)C1CCC(OCCCOc2cc(C(F)(F)F)ccc2-c2cc(=O)c3cccc(Cl)c3o2)C1` (stereo not drawn) [Example C124, 3-[3-[2-(8-chloro-4-oxo-chromen-2-yl)-5-(trifluoromethyl)phenoxy]propoxy]-N-methylsulfonyl-cyclopentanecarboxamide], in data set [1] (setting [3]), the IC50 stood at 2840 nM.

Regarding `O=C(COCCOc1cc(Br)ccc1-c1cc(=O)c2cccc(Cl)c2o1)N1CCC(O)C1` (stereo not drawn) [Example C126, 2-[4-bromo-2-[2-[2-(3-hydroxypyrrolidin-1-yl)-2-oxo-ethoxy]ethoxy]phenyl]-8-chloro-chromen-4-one], the half-maximal inhibitory concentration (IC50) in data set [1] (setting [3]) came to 4400 nM.

As for `O=c1cc(-c2ccccc2O)oc2cc(O)ccc12` [Example F-1, 7-hydroxy-2-(2-hydroxyphenyl)chromen-4-one, reference compound], in data set [1] (setting [3]), the IC50 was more than 50000 nM.

For `COc1ccc2oc(-c3ccccc3OC)cc(=O)c2c1` [Example F-2, 6-methoxy-2-(2-methoxyphenyl)chromen-4-one, reference compound], the IC50 in data set [1] (setting [3]) was more than 50000 nM.
